ChEMBL document CHEMBL1201862, “PubChem BioAssay data set” (2004)
Active and inactive are the calls of the source.

Tests used:
[1] = target: Heat shock protein HSP 90-alpha (Homo sapiens, UniProt P07900); type: functional, organism-based
[2] = target: T1, DNA repair protein RAD52 homolog (Homo sapiens, UniProt P43351); type: functional, biochemical
T1 sequence (P43351 whole entry): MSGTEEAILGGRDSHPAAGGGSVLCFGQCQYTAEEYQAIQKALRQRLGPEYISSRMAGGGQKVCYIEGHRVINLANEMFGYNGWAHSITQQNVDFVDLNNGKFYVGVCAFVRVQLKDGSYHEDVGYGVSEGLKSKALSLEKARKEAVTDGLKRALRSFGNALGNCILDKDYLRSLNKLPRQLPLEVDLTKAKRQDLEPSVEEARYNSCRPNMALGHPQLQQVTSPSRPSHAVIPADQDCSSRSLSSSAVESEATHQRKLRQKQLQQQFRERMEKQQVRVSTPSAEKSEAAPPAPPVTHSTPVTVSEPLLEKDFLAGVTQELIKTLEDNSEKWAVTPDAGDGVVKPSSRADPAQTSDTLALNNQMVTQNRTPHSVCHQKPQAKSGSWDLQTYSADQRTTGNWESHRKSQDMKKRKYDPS

[3] = target: T2, Ubiquitin-conjugating enzyme E2 N (Homo sapiens, UniProt P61088); type: functional
T2 sequence (P61088 whole entry): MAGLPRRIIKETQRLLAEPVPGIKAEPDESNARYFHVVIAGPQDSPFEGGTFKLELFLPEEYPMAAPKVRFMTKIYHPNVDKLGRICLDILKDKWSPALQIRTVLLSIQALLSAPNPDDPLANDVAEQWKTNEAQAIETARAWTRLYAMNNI

[4] = target: T3, Bcl-2-related protein A1 (Mus musculus, UniProt Q07440); type: functional;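 further: confirmatory dose–response counterscreen on Bfl-1, used to check hits from a UBC13 polyubiquitin inhibitor campaign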
T3 sequence (Q07440 whole entry): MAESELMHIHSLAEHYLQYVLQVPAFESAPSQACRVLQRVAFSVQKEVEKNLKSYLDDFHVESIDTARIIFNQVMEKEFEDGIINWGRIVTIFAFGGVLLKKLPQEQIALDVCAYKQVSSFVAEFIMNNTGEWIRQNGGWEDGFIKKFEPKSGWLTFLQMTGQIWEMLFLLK

[5] = target: T4, Apoptotic protease-activating factor 1 (Homo sapiens, UniProt O14727); type: functional
T4 sequence (O14727 whole entry): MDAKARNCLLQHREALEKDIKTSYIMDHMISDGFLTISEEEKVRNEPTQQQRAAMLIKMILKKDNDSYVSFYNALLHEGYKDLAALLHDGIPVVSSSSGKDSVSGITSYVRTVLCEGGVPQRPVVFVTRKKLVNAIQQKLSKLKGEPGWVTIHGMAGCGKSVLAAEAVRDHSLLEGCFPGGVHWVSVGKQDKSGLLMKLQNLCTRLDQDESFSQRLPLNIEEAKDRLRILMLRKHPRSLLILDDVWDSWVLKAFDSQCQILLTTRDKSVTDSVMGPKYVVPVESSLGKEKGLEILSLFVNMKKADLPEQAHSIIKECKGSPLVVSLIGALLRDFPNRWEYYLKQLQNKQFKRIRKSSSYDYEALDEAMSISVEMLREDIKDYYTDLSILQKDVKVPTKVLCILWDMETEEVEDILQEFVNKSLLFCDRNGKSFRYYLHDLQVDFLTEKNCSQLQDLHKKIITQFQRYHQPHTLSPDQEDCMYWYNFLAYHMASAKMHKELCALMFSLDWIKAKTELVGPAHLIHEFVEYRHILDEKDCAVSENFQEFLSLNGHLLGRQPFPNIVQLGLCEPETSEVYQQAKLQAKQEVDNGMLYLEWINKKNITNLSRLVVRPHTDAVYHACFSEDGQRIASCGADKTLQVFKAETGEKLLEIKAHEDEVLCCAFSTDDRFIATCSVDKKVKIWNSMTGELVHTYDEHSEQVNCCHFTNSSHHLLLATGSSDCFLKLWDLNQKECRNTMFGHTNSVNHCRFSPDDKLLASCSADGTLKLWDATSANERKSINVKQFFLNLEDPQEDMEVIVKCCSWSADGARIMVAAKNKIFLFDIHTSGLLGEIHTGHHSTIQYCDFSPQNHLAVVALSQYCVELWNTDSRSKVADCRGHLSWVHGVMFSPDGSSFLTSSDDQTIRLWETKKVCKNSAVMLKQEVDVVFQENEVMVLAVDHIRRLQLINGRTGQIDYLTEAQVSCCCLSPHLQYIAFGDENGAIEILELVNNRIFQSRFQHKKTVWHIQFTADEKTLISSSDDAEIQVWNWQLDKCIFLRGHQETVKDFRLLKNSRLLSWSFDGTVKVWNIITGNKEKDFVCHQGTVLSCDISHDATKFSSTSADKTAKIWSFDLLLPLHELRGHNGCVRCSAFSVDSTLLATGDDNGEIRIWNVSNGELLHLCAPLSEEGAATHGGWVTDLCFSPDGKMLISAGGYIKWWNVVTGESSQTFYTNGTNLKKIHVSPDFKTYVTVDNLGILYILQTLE

[6] = target: T2, Ubiquitin-conjugating enzyme E2 N; type: functional; remark: listed apart in the source
[7] = tested on: INS1; assay: beta cell apoptosis inhibitors, cytokine rescue, dose response, luminescence, retest (AID 449756); type: functional, cell-based; settings: Rattus norvegicus;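 further: cell death triggered by IL-1 beta plus TNF-alpha plus IFN-gamma mixture; protective hits raise ATP signal compared with cytokine alone wells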
[8] = target: T5, Endoribonuclease toxin MazF (Escherichia coli K-12, UniProt P0AE70); assay: MazF toxin RNase activators, dose response, biochemical, fluorescence, single-stranded RNA substrate, uHTS hits (AID 588481); type: functional
T5 sequence (P0AE70 whole entry): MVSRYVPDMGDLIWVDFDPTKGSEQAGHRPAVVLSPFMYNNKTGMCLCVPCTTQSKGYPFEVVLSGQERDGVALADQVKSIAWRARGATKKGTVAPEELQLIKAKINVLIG

[9] = target: T5, Endoribonuclease toxin MazF; assay: fluorescent RNA oligo signal without MazF, dose response, counter-screen for MazEF activator project, biochemical, fluorescence, single-stranded RNase substrate (AID 588502); type: functional
[10] = target: 72 kDa type IV collagenase (Homo sapiens, UniProt P08253); assay: Dose Response validation of uHTS RPN11 inhibitor hits using a MMP-2 Fluorescence assay.; type: functional
[11] = target: Prothrombin (Bos taurus, UniProt P00735); assay: thrombin inhibition, dose response, biochemical, fluorescence polarization, uHTS hits (AID 602369); type: functional
[12] = target: 26S proteasome non-ATPase regulatory subunit 14 (Homo sapiens, UniProt O00487); assay: inhibition of proteasome subunit RPN11 – biochemical, fluorescence polarization, uHTS hits, confirmation (AID 602368); type: functional
[13] = target: Cytochrome P450 3A4 (Homo sapiens, UniProt P08684);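 further: CYP3A4 tested as one member of a cytochrome P450 panel screen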
[14] = target: T6, Cytochrome P450 1A2 (Homo sapiens, UniProt P05177);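 further: PubChem cytochrome P450 panel assay, CYP1A2 panel member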
T6 sequence (P05177 whole entry): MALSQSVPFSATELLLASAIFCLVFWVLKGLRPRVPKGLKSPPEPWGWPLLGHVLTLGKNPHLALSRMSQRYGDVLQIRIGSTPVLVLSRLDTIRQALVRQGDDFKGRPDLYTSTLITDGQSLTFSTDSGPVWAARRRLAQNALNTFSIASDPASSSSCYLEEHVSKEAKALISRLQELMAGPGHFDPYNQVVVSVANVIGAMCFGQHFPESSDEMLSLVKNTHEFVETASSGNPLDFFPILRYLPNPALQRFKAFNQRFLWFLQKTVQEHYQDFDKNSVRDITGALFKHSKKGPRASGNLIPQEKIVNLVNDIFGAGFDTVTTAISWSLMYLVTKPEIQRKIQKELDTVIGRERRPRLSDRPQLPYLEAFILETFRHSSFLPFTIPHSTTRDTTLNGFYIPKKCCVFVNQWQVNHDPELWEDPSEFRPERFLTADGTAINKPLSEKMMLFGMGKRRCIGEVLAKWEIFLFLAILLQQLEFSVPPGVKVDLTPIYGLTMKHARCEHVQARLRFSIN

[15] = target: Cytochrome P450 2C9 (Homo sapiens, UniProt P11712)
[16] = target: T7, High affinity choline transporter 1 (Homo sapiens, UniProt Q9GZV3); assay: CHT inhibitors, dose response, cell-based, 5-point CRC, membrane potential dye (AID 504840); type: functional
T7 sequence (Q9GZV3 whole entry): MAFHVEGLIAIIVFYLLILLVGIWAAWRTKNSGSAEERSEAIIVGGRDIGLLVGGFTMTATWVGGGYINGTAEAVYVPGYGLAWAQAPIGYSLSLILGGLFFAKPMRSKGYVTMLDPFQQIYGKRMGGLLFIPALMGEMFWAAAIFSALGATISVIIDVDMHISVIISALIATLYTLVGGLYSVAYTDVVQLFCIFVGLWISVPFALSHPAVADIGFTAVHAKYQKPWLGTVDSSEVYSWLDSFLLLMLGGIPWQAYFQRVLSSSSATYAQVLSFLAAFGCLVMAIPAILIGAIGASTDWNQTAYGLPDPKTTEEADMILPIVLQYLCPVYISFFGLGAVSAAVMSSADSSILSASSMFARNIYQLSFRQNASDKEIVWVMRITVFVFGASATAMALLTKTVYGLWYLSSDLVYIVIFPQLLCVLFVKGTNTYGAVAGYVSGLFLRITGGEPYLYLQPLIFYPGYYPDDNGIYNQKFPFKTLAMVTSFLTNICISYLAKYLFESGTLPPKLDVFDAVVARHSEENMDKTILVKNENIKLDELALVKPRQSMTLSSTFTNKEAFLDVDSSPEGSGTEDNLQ

Cytochrome P450 3A4, sequence (P08684 whole entry): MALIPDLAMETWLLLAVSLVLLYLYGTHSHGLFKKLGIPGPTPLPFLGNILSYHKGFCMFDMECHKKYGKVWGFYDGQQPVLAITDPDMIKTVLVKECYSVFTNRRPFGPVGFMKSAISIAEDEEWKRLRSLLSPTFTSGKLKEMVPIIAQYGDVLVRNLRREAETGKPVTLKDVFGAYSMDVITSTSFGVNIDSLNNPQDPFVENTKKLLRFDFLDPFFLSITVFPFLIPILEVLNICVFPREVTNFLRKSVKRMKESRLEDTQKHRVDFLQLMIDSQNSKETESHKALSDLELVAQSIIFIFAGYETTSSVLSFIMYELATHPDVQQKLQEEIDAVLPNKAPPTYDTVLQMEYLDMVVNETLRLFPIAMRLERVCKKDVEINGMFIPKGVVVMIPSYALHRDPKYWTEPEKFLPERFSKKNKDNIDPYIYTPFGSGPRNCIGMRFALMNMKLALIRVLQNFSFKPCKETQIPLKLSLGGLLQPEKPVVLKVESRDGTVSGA
Cytochrome P450 2C9, sequence (P11712 whole entry): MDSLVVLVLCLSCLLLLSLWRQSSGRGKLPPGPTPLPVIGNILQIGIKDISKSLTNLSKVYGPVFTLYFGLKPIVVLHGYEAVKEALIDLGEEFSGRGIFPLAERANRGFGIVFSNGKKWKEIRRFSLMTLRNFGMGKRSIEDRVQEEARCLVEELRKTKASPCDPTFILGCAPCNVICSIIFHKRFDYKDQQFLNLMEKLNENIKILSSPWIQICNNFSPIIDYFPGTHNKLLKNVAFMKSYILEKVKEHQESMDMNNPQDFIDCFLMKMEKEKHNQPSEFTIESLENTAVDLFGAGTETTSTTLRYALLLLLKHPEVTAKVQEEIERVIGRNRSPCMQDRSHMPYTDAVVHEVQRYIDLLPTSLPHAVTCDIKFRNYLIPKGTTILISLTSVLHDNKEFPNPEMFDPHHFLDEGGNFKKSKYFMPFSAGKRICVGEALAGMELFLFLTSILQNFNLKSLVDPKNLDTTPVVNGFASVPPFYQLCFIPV
72 kDa type IV collagenase, sequence (P08253 whole entry): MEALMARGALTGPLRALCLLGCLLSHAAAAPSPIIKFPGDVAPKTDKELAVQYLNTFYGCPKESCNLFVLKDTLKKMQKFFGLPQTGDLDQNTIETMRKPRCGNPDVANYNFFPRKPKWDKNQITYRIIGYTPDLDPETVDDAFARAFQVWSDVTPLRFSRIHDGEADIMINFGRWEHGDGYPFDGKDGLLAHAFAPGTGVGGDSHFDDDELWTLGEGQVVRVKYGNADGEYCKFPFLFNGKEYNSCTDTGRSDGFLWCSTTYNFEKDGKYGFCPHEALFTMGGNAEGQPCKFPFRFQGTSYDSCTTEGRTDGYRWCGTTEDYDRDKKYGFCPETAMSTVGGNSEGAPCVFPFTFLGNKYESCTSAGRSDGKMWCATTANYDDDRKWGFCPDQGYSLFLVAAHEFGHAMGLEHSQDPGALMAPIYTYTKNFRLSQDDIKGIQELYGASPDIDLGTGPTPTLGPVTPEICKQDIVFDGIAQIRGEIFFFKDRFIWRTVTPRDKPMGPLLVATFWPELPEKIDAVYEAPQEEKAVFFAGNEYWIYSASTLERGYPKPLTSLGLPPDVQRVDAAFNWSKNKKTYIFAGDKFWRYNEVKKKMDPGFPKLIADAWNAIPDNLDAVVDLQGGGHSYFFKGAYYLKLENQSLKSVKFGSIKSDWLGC
26S proteasome non-ATPase regulatory subunit 14, sequence (O00487 whole entry): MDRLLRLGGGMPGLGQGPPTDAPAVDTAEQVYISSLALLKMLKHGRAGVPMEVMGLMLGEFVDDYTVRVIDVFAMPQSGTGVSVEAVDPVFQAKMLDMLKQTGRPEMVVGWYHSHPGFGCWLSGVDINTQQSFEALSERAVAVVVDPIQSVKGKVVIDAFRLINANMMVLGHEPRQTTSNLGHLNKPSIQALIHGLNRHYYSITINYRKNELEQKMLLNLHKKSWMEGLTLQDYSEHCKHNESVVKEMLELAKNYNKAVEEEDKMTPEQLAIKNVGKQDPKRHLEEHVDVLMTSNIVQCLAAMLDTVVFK

`Cc1cc(C(C)(C)CC(C)(C)C)ccc1OCCOCC[N+](C)(C)Cc1ccccc1` was tested, and the AC50 [1] was 7.56 µM (active), the AC50 [2] was 20.4 µM (active) and the IC50 [3] was 8.92 µM (active). For the same compound, the IC50 [4] was 14.9 µM (active), the IC50 [5] was 21.3 µM (active) and the IC50 [6] was 9.49 µM (active). The AC50 [7] was 2.41 µM (active).
With `O=C(C1=NN[C@@H]2C(=O)N(c3cccc(C(F)(F)F)c3)C(=O)[C@H]12)c1ccc2ccccc2n1` the EC50 [8] was 47.9 µM (inactive) and the EC50 [9] was > 99 µM (inactive).
With `CN(C(=O)COC(=O)c1ccc([N+](=O)[O-])cc1N)c1ccccc1` the EC50 [8] was > 99 µM (inactive) and the EC50 [9] was > 99 µM (inactive).
For `Cn1cncc1C#Cc1ccc2cc(C3(O)CCCCC3)oc(=O)c2c1`, the IC50 [10] was > 100 µM (inactive), the IC50 [11] was 53.3 µM (active) and the IC50 [12] was 32.5 µM (active).
In the case of `CCCCOC(=O)c1ccc(NC(=S)NC(=O)c2c(Cl)cnn2C)cc1`, the AC50 [13] is reported as “inconclusive”, the AC50 [14] is reported as 39.8 µM (inconclusive) and the AC50 [15] is reported as 39.8 µM (inconclusive).
For `CCOc1ccccc1C(=O)NC(C)c1ccc2c(c1)OCO2` (stereo unspecified), the IC50 [16] was 19.1 µM (active).
With `CC(=O)Nc1ccc(C(=O)CSc2cc(C)c3cccc(C)c3n2)cc1` the EC50 [8] was > 99 µM (inactive) and the EC50 [9] was > 99 µM (inactive).
With `CCc1nnc(NS(=O)(=O)c2ccc(NC(=O)c3cc(Cl)ccc3Cl)cc2)s1` the IC50 [16] was 12.3 µM (active).
In the case of `Cc1noc(NS(=O)(=O)c2ccc(NC(=O)COc3ccc(Cl)cc3Cl)cc2)c1C`, the IC50 [16] is reported as 1.08 µM (active).
`C=CCn1c(COc2cccc(C)c2)nnc1SC(C)C(=O)NC1CC1` (stereo unspecified) was tested, and the IC50 [5] was > 100 µM (inactive).
With `Cc1cc(C(=O)N/N=C/c2ccc(-c3ccc([N+](=O)[O-])cc3C)o2)[nH]n1` the EC50 [8] was > 99 µM (inactive) and the EC50 [9] was > 99 µM (inactive).
With `C/C(=N\OCC(=O)Nc1ccccc1C(=O)O)c1cccs1` the IC50 [16] was 11 µM (active).
